Measured values taken from patent US7084127B2, “C2,5′-disubstituted and N6, C2,5′-trisubstituted adenosine derivatives and their different uses” (Universiteit Leiden, priority 2001, dated 2006).
Read-outs that look alike come from different tables or passages of the source.

Experiments:
[1] = molecular target: T1, adenosine A1 receptor in rat brain cortex (Rattus norvegicus, UniProt P25099); test: Radioligand binding, displacement of [3H]DPCPX from rat cortical membranes; settings: ligand 10^−5 M
T1 construct: the adenosine A1 receptor in rat brain cortex; from tissue; host or cells: rat brain cortex
T1 sequence (P25099 1-326): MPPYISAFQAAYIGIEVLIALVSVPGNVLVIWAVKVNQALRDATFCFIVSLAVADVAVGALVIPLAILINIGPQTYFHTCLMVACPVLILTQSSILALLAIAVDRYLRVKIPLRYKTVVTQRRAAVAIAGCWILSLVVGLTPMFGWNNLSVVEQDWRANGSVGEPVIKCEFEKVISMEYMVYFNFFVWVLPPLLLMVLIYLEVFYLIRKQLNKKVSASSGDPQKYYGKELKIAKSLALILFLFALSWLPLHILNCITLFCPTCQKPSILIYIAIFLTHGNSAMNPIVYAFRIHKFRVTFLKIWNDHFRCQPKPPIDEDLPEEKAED
Description: (§1) Incubations were carried out for 1 hr at 37° C. and were terminated by rapid filtration over Whatman GF/B filters, using a Brandell cell harvester (Brandell, Gaithersburg, Md.). Tubes were washed three times with 3 ml of buffer. Radioactivity was determined in a Beckman 5500B γ-counter. Nonspecific binding was determined in the presence of 10^−5 M R-PIA.
(§2) All compounds were tested in radioligand binding assays to determine their affinities for the adenosine A1 receptor in rat brain cortex, the A2A receptor in rat striatum and the human A3 receptor as expressed in HEK 293 cells (Table 2). […] AB-MECA, an A3 receptor agonist, was also used. Displacement experiments were performed in the absence of GTP.

[2] = molecular target: T2, A2A receptor in rat striatum (Rattus norvegicus, UniProt P30543); test: Radioligand binding, displacement of [3H]ZM241385 from rat striatal membranes;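 also: displacement assays run in the absence of GTP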
T2 construct: the A2A receptor in rat striatum; from tissue; host or cells: rat striatum
T2 sequence (P30543 whole entry): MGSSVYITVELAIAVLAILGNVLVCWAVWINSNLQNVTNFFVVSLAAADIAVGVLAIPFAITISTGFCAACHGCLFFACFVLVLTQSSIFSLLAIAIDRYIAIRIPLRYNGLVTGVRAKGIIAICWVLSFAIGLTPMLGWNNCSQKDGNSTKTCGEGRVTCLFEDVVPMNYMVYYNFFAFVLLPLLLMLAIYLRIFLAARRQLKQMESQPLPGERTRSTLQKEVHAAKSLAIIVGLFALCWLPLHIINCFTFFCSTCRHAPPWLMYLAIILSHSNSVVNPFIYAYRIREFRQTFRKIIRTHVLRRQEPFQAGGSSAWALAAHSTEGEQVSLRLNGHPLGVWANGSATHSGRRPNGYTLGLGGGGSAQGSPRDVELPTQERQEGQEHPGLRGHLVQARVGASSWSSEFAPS
Description: as §1, §2

[3] = molecular target: T3, human A3 receptor as expressed in HEK 293 cells (Homo sapiens, UniProt P0DMS8); test: Radioligand binding, displacement of [125I]AB MECA, HEK 293 cell membranes
T3 construct: expressed in transfected cells; host or cells: HEK 293 cells (membrane suspension)
T3 sequence (P0DMS8 1-318): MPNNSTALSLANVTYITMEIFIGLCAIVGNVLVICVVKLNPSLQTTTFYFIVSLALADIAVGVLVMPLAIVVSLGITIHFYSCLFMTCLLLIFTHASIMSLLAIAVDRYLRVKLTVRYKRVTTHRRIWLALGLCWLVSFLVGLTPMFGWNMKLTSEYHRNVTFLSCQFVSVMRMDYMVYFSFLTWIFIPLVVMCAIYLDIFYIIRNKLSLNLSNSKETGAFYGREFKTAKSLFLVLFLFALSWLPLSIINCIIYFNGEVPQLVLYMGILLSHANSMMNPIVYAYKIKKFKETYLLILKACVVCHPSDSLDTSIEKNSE
Description: as §1, §2

[4] = molecular target: T4, human adenosine A2A receptors expressed in CHO cells (Homo sapiens, UniProt P29274); test: cAMP assay A2A (stimulation of cAMP production); format: cell-based
T4 construct: expressed in transfected cells; host or cells: CHO cells
T4 sequence (P29274 whole entry): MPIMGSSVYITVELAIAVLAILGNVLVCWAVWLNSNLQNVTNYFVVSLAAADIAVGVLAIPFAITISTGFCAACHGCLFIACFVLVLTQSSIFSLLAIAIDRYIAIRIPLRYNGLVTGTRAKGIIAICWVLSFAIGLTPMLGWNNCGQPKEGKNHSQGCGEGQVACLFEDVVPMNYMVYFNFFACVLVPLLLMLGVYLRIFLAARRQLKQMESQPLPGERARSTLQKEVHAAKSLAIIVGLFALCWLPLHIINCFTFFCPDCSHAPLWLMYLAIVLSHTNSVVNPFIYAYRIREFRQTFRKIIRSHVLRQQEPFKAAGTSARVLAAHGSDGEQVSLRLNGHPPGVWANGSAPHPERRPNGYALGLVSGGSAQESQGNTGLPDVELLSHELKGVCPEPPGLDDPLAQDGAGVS
Description: cAMP assay A2A CHO cells expressing human adenosine A2A receptors were grown overnight as a monolayer in 24 wells tissue culture plates (400 μL/well; 2×10^5 cells/well). cAMP generation was performed in Dulbecco's Modified Eagles Medium (DMEM)/N-2-hydroxyethylpiperazin-N′-2-ethanesulfonic acid (HEPES) buffer (0.60 g HEPES/50 mL DMEM pH 7.4). To each well, washed three times with DMEM/HEPES buffer (250 μλ), 100 μl DMEM/HEPES buffer, 100 μl adenosine deaminase (final concentration 5 IU/ml) and 100 μl of a mixture of rolipram and cilostamide (final concentration 50 μM each) were added. After incubation for 40 minutes at 37° C., 100 μl agonist was added. […] After 15 minutes at 37° C., the reaction was terminated by removing the medium and adding 200 μl 0.1 M HCl. Wells were stored at −20° C. until assay.
The amounts of cAMP were determined after a protocol with cAMP binding protein^36 with the following minor modifications. As a buffer was used 150 mM K2HPO4/10 mM EDTA/0.2% Bovine Serum Albumine (BSA) at pH 7.5. Samples (20 μl+30 μl 0.1 M HCl) were incubated for at least 2.5 hours at 0° C. before filtration over Whatman GF/B filters. […] Filters were counted in Packard Emulsifier Safe scintillation fluid (3.5 ml) after 24 hours of extraction.
Data Analysis Apparent Ki and EC50 values were computed from the displacement curves by non-linear regression of the competition curves with the software package Prism (Graph Pad, San Diego, Calif.)

[5] = molecular target: T5, human adenosine A3 receptor (Homo sapiens, UniProt P0DMS8); test: cAMP assay A3 (inhibition of forskolin-induced cAMP production); format: cell-based; settings: read-out: Emax (%) A3
T5 construct: expressed in transfected cells; HEK 293 cells according to b145 and b219
T5 sequence (P0DMS8 1-318): T3 sequence (P0DMS8 1-318)
Description: cAMP assay A3 CHO cells expressing the human adenosine A3 receptor were grown overnight as a monolayer in 24 wells tissue culture plates (400 μl/well; 2×10^5 cells/well). cAMP generation was performed in Dulbecco's Modified Eagles Medium (DMEM)/N-2-hydroxyethylpiperazin-N′-2-ethansulfonic acid (HEPES) buffer (0.60 g HEPES/50 ml DMEM pH 7.4). […] After incubation for 40 minutes at 37° C., 100 μl forskolin (final concentration 10 μM) was added. After 15 minutes at 37° C., the reaction was terminated by removing the medium and adding 200 μl 0.1 M HCl. Wells were stored at −20° C. until assay. The amounts of cAMP were determined after a protocol with cAMP binding protein^36 with the following minor modifications. As a buffer was used 150 mM K2HPO4/10 mM EDTA/0.2% Bovine Serum Albumine (BSA) at pH 7.5. Samples (20 μl+30 μl 0.1 M HCl) were incubated for at least 2.5 hours at 0° C. before filtration over Whatman GF/B filters. […] Filters were counted in Packard Emulsifier Safe scintillation fluid (3.5 ml) after 24 hours of extraction.
All compounds were also tested in functional assays.
The ability of the compounds to inhibit forskolin-stimulated (10 μM) cAMP production via the adenosine A3 receptor was also studied.
The amounts of cAMP were determined after a protocol with cAMP binding protein^28 with the following minor modifications. As a buffer was used 150 mM K2HPO4/10 mM EDTA/0.2% Bovine Serum Albumine (BSA) at pH 7.5. Samples (20 μl+30 μl 0.1 M HCl) were incubated for at least 2.5 hours at 0° C. before filtration over Whatman GF/B filters. […] Filters were counted in Packard Emulsifier Safe scintillation fluid (3.5 ml) after 24 hours of extraction.

[6] = molecular target: T6, human adenosine A1 receptors expressed in CHO cells (Homo sapiens, UniProt P30542); test: cAMP assay A1 (inhibition of forskolin-induced cAMP production); format: cell-based; settings: for % inhib. A1 of forskolin-induced cAMP: compared to reference full agonist CPA (10 μM) in A1 CHO cells, tested at ±100 × Ki, ±SEM, n = 3, forskolin 10 μM
T6 construct: expressed in transfected cells; host or cells: CHO cells
T6 sequence (P30542 1-326): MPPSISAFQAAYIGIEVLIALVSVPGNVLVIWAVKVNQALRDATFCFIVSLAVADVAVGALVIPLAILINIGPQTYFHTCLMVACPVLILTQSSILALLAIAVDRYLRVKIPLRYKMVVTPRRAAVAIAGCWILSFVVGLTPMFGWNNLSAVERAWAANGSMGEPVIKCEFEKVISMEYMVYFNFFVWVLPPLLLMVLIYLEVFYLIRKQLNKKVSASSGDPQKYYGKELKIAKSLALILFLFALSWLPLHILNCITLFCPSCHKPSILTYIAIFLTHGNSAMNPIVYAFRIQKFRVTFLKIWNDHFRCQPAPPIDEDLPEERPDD
Description: cAMP assay A1 and A3 CHO cells expressing either the human adenosine A1 or A3 receptor were grown overnight as a monolayer in 24 wells tissue culture plates (400 μl/well; 2×10^5cells/well). cAMP generation was performed in Dulbecco's Modified Eagles Medium (DMEM)/N-2-hydroxyethylpiperazin-N′-2-ethansulfonic acid (HEPES) buffer (0.60 g HEPES/50 ml DMEM pH 7.4). […] After incubation for 40 minutes at 37° C., 100 μl forskolin (final concentration 10 μM) was added. After 15 minutes at 37° C., the reaction was terminated by removing the medium and adding 200 μL 0.1 M HCl. Wells were stored at −20° C. until assay
The amounts of cAMP were determined after a protocol with cAMP binding protein^28 with the following minor modifications. As a buffer was used 150 mM K2HPO4/10 mM EDTA/0.2% Bovine Serum Albumine (BSA) at pH 7.5. Samples (20 μl+30 μl 0.1 M HCl) were incubated for at least 2.5 hours at 0° C. before filtration over Whatman GF/B filters. Filters were additionally rinsed with 2×2 ml TrisHCl buffer (pH 7.4, 4° C.). Filters were counted in Packard Emulsifier Safe scintillation fluid (3.5 ml) after 24 hours of extraction. […]

[7] = [3H]ZM241385, rat striatal membranes
[8] = cAMP production, human A2A in CHO cells
[9] = compared to full agonist CGS 21680
[10] = [3H]ZM241385, rat striatal membranes, ligand 10^−5 M

Molecule | Ki [2, 7] | % inhib. A1 of forskolin-induced cAMP [6] | % displacement at 10^−5 M A2A [2, 10] | also measured
CCSC[C@H]1O[C@@H](n2cnc3c(N)nc(NN=CCC(C)C)nc32)[C@H](O)[C@@H]1O [Compound 46, 5′-Deoxy-2-(N′-3-methyl-1-butylidenehydrazino)-5′-ethylthioadenosine] | 500 ± 40 nM | – | – | % displacement at 10^−5 M A1 [1]: 21.2%; Ki [3]: 814 ± 132 nM; Emax ([4]; CHO; read-out: Emax (%) A2A): 101 ± 4%; EC50 [4, 8]: 7.5 ± 0.3 µM; agonist behaviour, cAMP production via adenosine A2A receptor [4, 9]: full agonists; Emax at 100 µM [5]: 7%
COC[C@H]1O[C@@H](n2cnc3c(NC4CCCC4)ncnc32)[C@H](O)[C@@H]1O [Compound 67, N^6-cyclopentyl-5′-O-methyladenosine] | 366 ± 109 nM | 74 ± 4% | – | –
CSC[C@H]1O[C@@H](n2cnc3c(N)nc(NN=CCC(C)C)nc32)[C@H](O)[C@@H]1O [Compound 45, 5′-Deoxy-2-(N′-3-methyl-1-butylidenehydrazino)-5′-methylthioadenosine] | 220 ± 20 nM | – | – | % displacement at 10^−5 M A1 [1]: 18.9%; Ki [3]: 253 ± 36 nM; Emax ([4]; CHO; read-out: Emax (%) A2A): 44 ± 4%; EC50 [4, 8]: 5 ± 0.6 µM; Emax at 30 µM [5]: 41%
CCOC[C@H]1O[C@@H](n2cnc3c(NC4CCCC4)ncnc32)[C@H](O)[C@@H]1O [Compound 73, N^6-cyclopentyl-5′-O-ethyladenosine] | – | 69 ± 6% | 33.9% | –
O[C@@H]1[C@H](O)[C@@H](COC2CC2)O[C@H]1n1cnc2c(NCc3cccc(I)c3)nc(Cl)nc21 [Compound 83, N^6-(3-Iodobenzyl)-2-chloro-5′-O-cyclopropyladenosine] | – | −118 ± 41 % | 38.7% | –
N^6-Cyclopentyl-5′-O-Cyclopropyladenosine [Compound 78] | – | 61 ± 2% | – | –
CCCSC[C@H]1O[C@@H](n2cnc3c(N)nc(NN=CCC(C)C)nc32)[C@H](O)[C@@H]1O [Compound 47, 5′-Deoxy-2-(N′-3-methyl-1-butylidenehydrazino)-5′-propylthioadenosine] | 1500 ± 280 nM | – | – | % displacement at 10^−5 M A1 [1]: 22.0%; Ki [3]: 697 ± 31 nM; Emax ([4]; CHO; read-out: Emax (%) A2A): 126 ± 3%; EC50 [4, 8]: 12.9 ± 0.9 µM; agonist behaviour, cAMP production via adenosine A2A receptor [4, 9]: full agonists; Emax at 100 µM [5]: 16%
O[C@@H]1[C@H](O)[C@@H](COC2CC2)O[C@H]1n1cnc2c(NC3CCCC3)ncnc21 [Compound 79, N^6-Cyclopentyl-5′-O-cyclopropyladenosine] | – | 62 ± 4% | 24.3% | –
O[C@@H]1[C@H](O)[C@@H](COC2CC2)O[C@H]1n1cnc2c(NC3CCCC3)nc(Cl)nc21 [Compound 82, N^6-cyclopentyl-2-Chloro-5′-O-cyclopropyladenosine] | – | 43 ± 9% | 34.6% | –
CCCCC#Cc1nc(N)c2ncn([C@@H]3O[C@H](CSC)[C@@H](O)[C@H]3O)c2n1 [Compound 37] | 60 ± 20 nM | – | – | EC50 [4, 8]: 0.7 ± 0.1 µM; Emax (%) A2A ([4]; compared to Emax of CGS 21680 (10 μM) in A2A CHO cells, ±SEM, n = 3; n.a. = not active, no cAMP produced at 30 μM (35) or 100 μM): 45 ± 6%
COC[C@H]1O[C@@H](n2cnc3c(NC4CCCC4)nc(Cl)nc32)[C@H](O)[C@@H]1O [Compound 70, N^6-Cyclopentyl-2-chloro-5′-O-methyladenosine] | 1390 ± 140 nM | 73 ± 4% | – | –
CNC(=O)[C@H]1O[C@@H](n2cnc3c(NCc4cccc(I)c4)nc(Cl)nc32)[C@H](O)[C@@H]1O [Cl-IB-MECA, reference compound] | – | – | 23.5% | –
COC[C@H]1O[C@@H](n2cnc3c(NCc4cccc(I)c4)ncnc32)[C@H](O)[C@@H]1O [Compound 68, N^6-(3-iodobenzyl)-5′-O-methyladenosine] | 373 ± 80 nM | 53 ± 10% | – | –
CCOC[C@H]1O[C@@H](n2cnc3c(NC4CCCC4)nc(Cl)nc32)[C@H](O)[C@@H]1O [Compound 76, N^6-cyclopentyl-2-Chloro-5′-O-ethyladenosine] | 1730 ± 700 nM | 62 ± 6% | – | –
CCOC[C@H]1O[C@@H](n2cnc3c(NCc4cccc(I)c4)nc(Cl)nc32)[C@H](O)[C@@H]1O [Compound 77, N^6-(3-iodobenzyl)-2-Chloro-5′-O-ethyladenosine] | 848 ± 60 nM | −72 ± 38 % | – | –
O[C@@H]1[C@H](O)[C@@H](COC2CC2)O[C@H]1n1cnc2c(NCc3cccc(I)c3)ncnc21 [Compound 80, N^6-(3-Iodobenzyl)-5′-O-cyclopropyladenosine] | – | −104 ± 22 % | 43.7% | –
OC[C@H]1O[C@@H](n2cnc3c(NC4CCCC4)nc(Cl)nc32)[C@H](O)[C@@H]1O [2-Cl-CPA, reference compound] | – | – | 53.1% | –
CCOC[C@H]1O[C@@H](n2cnc3c(NCc4cccc(I)c4)ncnc32)[C@H](O)[C@@H]1O [Compound 74, N^6-(3-Iodobenzyl)-5′-O-Ethyladenosine] | – | 6 ± 21% | 40.4% | –
5′-Deoxy-2-iodo-5′-methylthioadenosine [Compound 33] | 3900 ± 580 nM | – | – | –
COC[C@H]1O[C@@H](n2cnc3c(NCc4cccc(I)c4)nc(Cl)nc32)[C@H](O)[C@@H]1O [Compound 71, N^6-(3-iodobenzyl)-2-Chloro-5′-O-methyladenosine] | 527 ± 21 nM | 37 ± 15% | – | –
Nc1nc(I)nc2c1ncn2[C@@H]1O[C@H](CO)[C@@H](O)[C@H]1O [Compound 1, 2-Iodoadenosine] | – | – | – | % displacement at 10^−5 M A1 [1]: 36.1%; Emax ([4]; CHO, read-out: Emax (%) A2A): 112 ± 7%; EC50 [4, 8]: 5.4 ± 0.7 µM
OC[C@H]1O[C@@H](n2cnc3c(NC4CCCC4)ncnc32)[C@H](O)[C@@H]1O [CPA, reference compound] | – | – | – | % displacement at 10^−5 M A2A [2]: 45.9%; Ki ([3]; [125I]AB MECA, human A3 receptor in HEK 293 cells, read-out: Ki A3): 281 ± 56 nM; inhibition at 10 µM ([6]; CHO, read-out: % inhib. A1 of forskolin-induced cAMP): 69 ± 3%
